Laboratory results as given in the supplement of paper PMC11579375.

Assays:
Experiment in all cases: area under the viability dose-response curve (AUC) (AUC (arbitrary units, max 500 = no viability loss)); higher = less sensitive (higher viability)
Settings in all cases: exposure time: 120 h; concentration range: 0.1 nM - 10 µM, 6 doses
10F2 = test system: 10F2 (fetal-II hepatoblastoma organoid with high liver markers)
Method: (§1)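 Patient-derived hepatoblastoma tumor organoids (about 50 organoids per well, 384-well plates, medium with 5% BME) were treated with the PMC pediatric cancer drug library. Each drug was tested in duplicate at 6 concentrations (0.1 nM to 10 µM, 10-fold steps).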

13F2 = test system: 13F2 (fetal-II hepatoblastoma organoid with high liver markers)
Method: as §1

17F1 = test system: 17F1 (fetal-I hepatoblastoma organoid with intermediate liver markers)
Method: as §1

8F1 = test system: 8F1 (fetal-I hepatoblastoma organoid with intermediate liver markers)
Method: as §1

27F1 = test system: 27F1 (fetal-I hepatoblastoma organoid with intermediate liver markers)
Method: as §1

17E = test system: 17E (embryonal-type hepatoblastoma organoid)
Method: as §1

96F1 = test system: 96F1 (fetal-I hepatoblastoma organoid with intermediate liver markers)
Method: as §1

22E = test system: 22E (embryonal-type hepatoblastoma organoid)
Method: as §1

135F2 = test system: 135F2 (fetal-II hepatoblastoma organoid with high liver markers)
Method: as §1

3E = test system: 3E (embryonal-type hepatoblastoma organoid)
Method: as §1

13E = test system: 13E (embryonal-type hepatoblastoma organoid)
Method: as §1

Row | Compound | area under the viability dose-response curve (10F2) | area under the viability dose-response curve (13F2) | area under the viability dose-response curve (17F1) | area under the viability dose-response curve (8F1) | area under the viability dose-response curve (27F1) | area under the viability dose-response curve (17E) | area under the viability dose-response curve (96F1) | area under the viability dose-response curve (22E) | area under the viability dose-response curve (135F2) | area under the viability dose-response curve (3E) | area under the viability dose-response curve (13E)
1 | O=C(NC1CCNCC1)c1n[nH]cc1NC(=O)c1c(Cl)cccc1Cl [AT7519] | 378 | 361 | 381 | 381 | 456 | 406 | 387 | 371 | 396 | 332 | 348
2 | CC[C@H](NC(=O)[C@H](C)NC)C(=O)N1C[C@@H](O)C[C@H]1Cc1c(-c2[nH]c3cc(F)ccc3c2C[C@@H]2C[C@H](O)CN2C(=O)[C@H](CC)NC(=O)[C@H](C)NC)[nH]c2cc(F)ccc12 [Birinapant] | 425 | 483 | 467 | 468 | > 500 | 434 | 480 | 204 | 483 | 237 | 473
3 | CCn1cc(-c2cccc(C(F)(F)F)c2)c2sc(C(=N)NC3CCS(=O)(=O)CC3)cc2c1=O [I-BRD9] | > 500 | 435 | 490 | 459 | > 500 | 461 | 478 | 493 | 471 | 376 | 470
4 | CC(=O)O[C@H]1C(=O)[C@@]2(C)[C@H]([C@H](OC(=O)c3ccccc3)[C@]3(O)C[C@H](OC(=O)[C@H](O)[C@@H](NC(=O)c4ccccc4)c4ccccc4)C(C)=C1C3(C)C)[C@]1(OC(C)=O)CO[C@@H]1C[C@@H]2O [Paclitaxel] | 179 | 215 | 222 | 312 | 250 | 174 | 179 | 229 | 211 | 145 | 196
5 | COc1cc(N2CCC(N3CCN(C)CC3)CC2)ccc1Nc1ncc(Cl)c(Nc2ccccc2P(C)(C)=O)n1 [Brigatinib] | 399 | 388 | 426 | 454 | 420 | 398 | 427 | 381 | 392 | 349 | 402
6 | CC(=O)c1c(C)c2cnc(Nc3ccc(N4CCNCC4)cn3)nc2n(C2CCCC2)c1=O [Palbociclib] | 398 | 337 | > 500 | 499 | 470 | 373 | 460 | 460 | 431 | 382 | 467
7 | Nc1nc(=S)c2[nH]cnc2[nH]1 [6-Thioguanine] | 462 | 381 | 457 | 476 | 443 | 432 | 412 | 448 | 390 | 484 | 437
8 | O=C(NOC[C@H](O)CO)c1ccc(F)c(F)c1Nc1ccc(I)cc1F | 262 | 325 | 480 | > 500 | 447 | 471 | 461 | 481 | 376 | 488 | 490
9 | Cc1c(Cn2c(C)nc3c(C(=O)O)cc(N4CCOCC4)cc32)cccc1C(F)(F)F | 500 | 488 | 498 | > 500 | 498 | 495 | 497 | 495 | > 500 | 499 | 488
10 | CCN(c1cc(-c2ccc(CN3CCOCC3)cc2)cc(C(=O)NCc2c(C)cc(C)[nH]c2=O)c1C)C1CCOCC1 [Tazemetostat] | 448 | 360 | 482 | > 500 | 475 | 415 | 473 | 481 | 473 | 461 | 479
11 | CN(C)/N=N/c1[nH]cnc1C(N)=O [Dacarbazine] | > 500 | 487 | 486 | > 500 | 494 | > 500 | 491 | > 500 | 496 | > 500 | > 500
12 | CC[C@]1(O)C[C@H]2CN(CCc3c([nH]c4ccccc34)[C@@](C(=O)OC)(c3cc4c(cc3OC)N(C=O)[C@H]3[C@@](O)(C(=O)OC)[C@H](OC(C)=O)[C@]5(CC)C=CCN6CC[C@]43[C@@H]65)C2)C1 [Vincristine] | 188 | 222 | 180 | 243 | 218 | 181 | 196 | 193 | 209 | 125 | 174
13 | COc1cc(Nc2ncc3c(n2)-c2ccc(Cl)cc2C(c2c(F)cccc2OC)=NC3)ccc1C(=O)O [Alisertib] | 325 | 310 | 494 | 473 | 436 | 339 | 416 | 382 | 369 | 328 | 381
14 | Cn1ncnc1[C@H]1c2n[nH]c(=O)c3cc(F)cc(c23)N[C@@H]1c1ccc(F)cc1 [Talazoparib] | 367 | 328 | 486 | 438 | 403 | 383 | 439 | 444 | 392 | 341 | 399
15 | COc1cccc(OCCCN)c1-c1cc(Nc2cnc(C#N)cn2)n[nH]1 [Prexasertib] | 293 | 345 | 371 | 334 | 264 | 274 | 320 | 345 | 324 | 172 | 313
16 | C[C@]12CCCN1CC1=NNC(=O)c3cc(F)cc4[nH]c2c1c34 [Pamiparib] | 439 | 443 | > 500 | 479 | 487 | > 500 | 494 | 473 | 478 | 459 | 481
